Test results taken from US9416181B2, “Compositions for cell culture and methods of using the same” (AbbVie Inc., priority 2013, dated 2016).
“Also recorded” adds a separate entry of the source.

Legend:
Format in all cases: cell-based, Chinese Hamster
[1] = system: Cell Line 1 (CHO) expressing Antibody 1; assay: Intracellular ROS by flow cytometry (H2-DCF), Cell Line 1 3 L bioreactor culture; conditions: bioreactor cultures; Days 6, 8, 12, 15; vs unsupplemented control
Protocol: At least 10×10^6 cells were harvested from 3 L bioreactor cultures on Days 6, 8, 12, and 15 after inoculation. Immediately after sampling, the samples were centrifuged and the cell pellet was washed with 1×PBS, and re-suspended in 1 mL of pre-warmed 1×PBS. 2 μL of 2 mM H2-DCF (Life Technologies, Grand Island, N.Y.) in DMSO (Sigma-Aldrich, St. Louis, Mo.) was then added and incubated at 37° C. for 30 minutes and covered from light. The cell suspension was then centrifuged and resuspended in 1×PBS twice to wash the cells and remove residual fluorophore. The cells were then loaded onto a FACSCalibur (Becton Dickinson, Franklin Lakes, N.J.) flow cytometer for the measurement of intracellular ROS at 492-495 nm/517-527 nm excitation/emission.

[2] = system: Cell Line 1 (CHO) expressing Antibody 1; assay: Acidic species variants (WCX-10) of Antibody 1, Cell Line 1 3 L bioreactor fed-batch culture; conditions: for drop in absolute acidic species percentage points: 3 L bioreactor; for drop in absolute acidic species percentage points / relative total AR (ratio to Day 8 value of unsupplemented control): Day 15 harvest
Protocol: (§1) A recombinant Chinese Hamster Ovary (CHO) cell line (Cell Line 1) expressing a humanized monoclonal antibody (Antibody 1) was evaluated in 2 different cultures vessels (shaker flasks and 3 L laboratory-scale bioreactors). The cell line was of CHO DUX-B11 origin based on a DHFR (dihydrofolate reductase) expression system and cultured in a chemically defined basal media, and fed periodically with a chemically-defined feed media (CDFM). The media utilized throughout all of the experiments were chemically-defined, and both animal-component free, and protein-free. Each of the respective media were supplemented as needed with selected bioflavonoids to evaluate for their potential impact on the resulting acidic species profile. In preparation of the cultures, the cell lines were serially expanded through separate seed train inoculums to generate enough cells for inoculation. Process conditions utilized during the cultures were slightly different depending on the culture scale, but similar within each scale to the respective non-bioflavonoid supplemented control conditions. All bioflavonoids utilized were purchased from Sigma-Aldrich (St. Louis, Mo.).
Samples were analyzed using an HPLC system equipped with a ProPac WCX-10 analytical column (Thermo Scientific, Sunnyvale, Calif.). Approximately 100 μg of sample was loaded in 6% Buffer B (10 mM sodium phosphate, 500 mM NaCl, pH 5.5) and 94% Buffer A (10 mM sodium phosphate, pH 7.5). The column was run at a flow rate of 1.0 mL/min. The protein was eluted from the column by increasing the buffer B composition from 6% to 16% over 20 minutes. The protein peaks were measured using UV absorbance at 280 nm as the peaks eluted from the column. The column was regenerated using 100% buffer B followed be a re-equilibration period using initial condition before the injection of the next sample. Peaks eluting before the main peak were termed “acidic peaks” and peaks eluting after the main peak were called “basic peaks” (FIG. 2).
In the next experiment, lab-scale bioreactors were used to (1) confirm the shaker experiment results and (2) to determine whether higher concentration range of EGCG is suitable for supplementing into cell culture. EGCG was added to the feed of the batch culture at the concentrations of 20 mg/L (mid), 50 mg/L (high) and 125 mg/L (high+) and 250 mg/L (high++) in this reactor experiment.
Cell Line 1 was evaluated in larger-scale feed batch cultures with the feed media supplemented with various bioflavonoids. […] By contrast, cell growth performance was slightly different for the 0.1 g/L EGCG supplemented condition. […] However, the cell viability remained high at 0.1 g/L EGCG. All cultures were successfully harvested on Day 15 post-inoculation. The harvest titers measured from the evaluated cultures were similar.
Cell Line 1 was also evaluated in laboratory-scale fedbatch cultures with the feed media supplemented with various bioflavonoids. […] Cell growth performance was slightly different however with the 0.1 g/L EGCG supplemented condition. […] All cultures were able to be successfully harvested on Day 15 post-inoculation.

[3] = system: Cell Line 1 (CHO) expressing Antibody 1; assay: Cell culture performance (cell growth, viability, titer), Cell Line 1 shake flask fed-batch culture
Protocol: as §1
Viable cell density (VCD) and cell viability values were measured through trypan blue exclusion via Cedex automated cell counters (Roche Applied Science, Indianapolis, Ind.), glucose and lactate values were measured with a ABL-805 (Radiometer Medical, Denmark) blood gas analyzer. Offline pH, dissolved oxygen (DO), and pCO2 measurements were performed as needed with an ABL-805 (Radiometer Medical, Denmark) blood gas analyzer. Osmolality was measured as needed on a Multi-Osmette 2430 osmometer (Precision Systems, Natick, Mass.).
Antibody titers were measured from crude cell culture harvests on a Poros A™ (Life Technologies, Carlsbad, Calif.) affinity column using an HPLC system operating with a low pH, step elution gradient with detection at 280 nm. Absolute concentrations were assigned with respect to reference standard calibration curves.
In this Example, EGCG was added into the feed (cell culture medium) at the concentration range of 5 mg/L (low), 20 mg/L (mid) and 50 mg/L (high) in a shaker experiment to determine the impact of EGCG on product quality of a humanized monoclonal antibody (Antibody 1). Detailed cell culture conditions are as described in Table 1.
However, it was not clear whether or not additional bioflavonoids would also have the same effects. To evaluate the impact of alternative bioflavonoids, fed-batch shake flask cultures were initiated with CDFM supplemented with 3 different concentrations of genistein, rutin, and naringin, in addition to EGCG. Cell growth, viability, as well as titers and acidic species variants were measured.
To evaluate the impact of other bioflavonoids, fed-batch shake flask cultures were initiated with CDFM supplemented with multiple concentrations of rutin. Cell growth, viability, as well as titers and acidic species variants were measured and shown in FIGS. 14 and 15, respectively.

[4] = 50, 125 and 250 mg/L in feed, bioreactor
[5] = concentrations above 0.1 g/L in CDFM, shake flask

SMILES: O=C(O[C@@H]1Cc2c(O)cc(O)cc2O[C@@H]1c1cc(O)c(O)c(O)c1)c1cc(O)c(O)c(O)c1 [EGCG, epigallocatechin gallate]
- intracellular ROS level [1]: marked reduction of overall ROS level; also recorded: reduced the intracellular ROS level in a dose-dependent fashion
- drop in absolute acidic species percentage points ([2]; 0.05 g/L in CDFM): 4%
- relative total AR (ratio to Day 8 value of unsupplemented control) ([2]; 0.05 g/L in CDFM, bioreactor): 1.10
- drop in absolute acidic species percentage points ([2]; 0.1 g/L in CDFM): 10%
- relative total AR (ratio to Day 8 value of unsupplemented control) ([2]; 0.1 g/L in CDFM, bioreactor): 0.69
- reduction of total acidic species content, absolute value [2, 4]: at least 2%
- reduction of total acidic species content, relative value [2, 4]: ≥ 16%
- cell growth vs control ([3]; 0.1 g/L in CDFM, shake flask): significantly lower than that of the control culture
- cell viability vs control ([3]; 0.1 g/L in CDFM, shake flask, cultures proceeded until Day 12): comparable to the control
- impact on cell culture performance (cell growth, viability, titer) ([3]; 5, 20 and 50 mg/L in feed, shaker): no impact on cell culture performance
- cell growth [3, 5]: adversely impacted
- culture duration reached before viability became too low [3, 5]: 8 days
- harvest titer ([3]; higher levels of supplement, shake flask, Day 12 harvest): decreased titer
